The results in this text go back to ChEMBL document CHEMBL5356999, “Discovery and characterization of novel TRPML1 agonists” (Bioorg Med Chem Lett, 2024).

The nature of series [1]: Effect on TRPML1 knockout HEK293 cells. It counts as functional, cell-based, Homo sapiens.
A short description of series [2]: Efflux ratio of apparent permeability in MDCK-MDR1 cells. Format: ADME, cell-based, Canis lupus familiaris. The conditions noted are these: dog.
Series [3] is described as follows: Stability in cynomolgus monkey assessed as intrinsic clearance. It counts as ADME, cell-based, Macaca fascicularis, Hepatocyte. The following applies: hepatocytes.
Series [4] is described as follows: Half life in mouse at 1 mg/kg, IV. Format: ADME, organism-based. The conditions noted are these: in vivo.
Series [5] in a line: Bioavailability in mouse at 10 mg/kg, po or 1 mg/kg, iv. It counts as ADME, organism-based. The conditions noted are these: in vivo.
Series [6] in a line: Plasma protein binding in rat. Format: ADME.
A short description of series [7]: Stability in human hepatocytes assessed as half life. It counts as ADME, cell-based, Hepatocyte.
Series [8] in a line: Stability in cynomolgus monkey hepatocytes assessed as half life. It counts as ADME, cell-based, Macaca fascicularis, Hepatocyte.
Series [9] in a line: Protein binding in mouse brain. It counts as ADME, tissue-based.
Series [10] can be described thus: Stability in dog assessed as intrinsic clearance. The following applies: hepatocytes. Format: ADME, cell-based, Canis lupus familiaris, Hepatocyte.
Series [11] in a line: Clearance in mouse at 10 mg/kg, po or 1 mg/kg, iv. It counts as ADME, organism-based. The conditions noted are these: in vivo.
Series [12] can be described thus: Stability in rat hepatocytes assessed as half life. Format: ADME, cell-based, Hepatocyte.
The nature of series [13]: Cmax in mouse at 10 mg/kg, po or 1 mg/kg, iv. It counts as ADME, organism-based. More on the design: dose 10 mg/kg, route po. The following applies: in vivo.
A short description of series [14]: Volume of distribution at steady state in mouse at 10 mg/kg, po or 1 mg/kg, iv. It counts as ADME, organism-based. The following applies: in vivo.
Series [15] in a line: Stability in mouse hepatocytes assessed as half life. It counts as ADME, cell-based, Hepatocyte.
Series [16] can be described thus: Stability in mouse assessed as intrinsic clearance. Format: ADME, cell-based, Hepatocyte. The conditions noted are these: hepatocytes.
Series [17] in a line: Stability in dog assessed as half life. Format: ADME, cell-based, Canis lupus familiaris, Hepatocyte. The following applies: hepatocytes.
Series [18] can be described thus: Stability in rat assessed as intrinsic clearance. Format: ADME, cell-based, Hepatocyte. The conditions noted are these: hepatocytes.
The nature of series [19]: Apparent permeability across apical to basolateral side in MDCK-MDR1 cells. The conditions noted are these: dog. Format: ADME, cell-based, Canis lupus familiaris.
Series [20] in a line: Plasma protein binding in mouse. It counts as ADME, cell-free.
Series [21] is described as follows: Stability in human assessed as intrinsic clearance. The following applies: hepatocytes. It counts as ADME, cell-based, Hepatocyte.
A short description of series [22]: Half life in mouse at 10 mg/kg, PO. Format: ADME, organism-based. The following applies: in vivo.
Series [23] can be described thus: Unbound brain-to-plasma concentration ratio in mouse measured after 8 hrs. Format: ADME, cell-free. The following applies: read-out: K(p,uu,brain).
Series [24] is described as follows: Plasma protein binding in cynomolgus monkey. Format: ADME, cell-free, Macaca fascicularis.
A short description of series [25]: Plasma protein binding in human. It counts as ADME.

`CN(C)S(=O)(=O)c1ccc(S(=O)(=O)Nc2cccc(Cl)c2N2CCCCC2)cc1`: the EC50 (commonly the concentration that produces a half-maximal response) in series [1] turned out to be 1 µM.

Regarding `Clc1cccc(N2CCN(C3c4ccccc4CCCCn4nnnc43)CC2)c1` (stereo not drawn), the EC50 in [1] is > 48.8 µM.

As for `Clc1cccc(N2CCN(C3c4ccccc4CCCCCn4nnnc43)CC2)c1` (stereo not drawn), the EC50 in series [1] was > 48.8 µM.

As to `Clc1cccc(N2CCN(C3c4ccccc4/C=C\CCCn4nnnc43)CC2)c1` (stereo not drawn), the EC50 in [1] was > 48.8 µM.

For `CC(C)n1nnnc1[C@@H](c1ccccc1F)N1CCN(c2cccc(Cl)c2)CC1`, in [2], the efflux ratio (as a rule, the permeability from basolateral to apical divided by that in the opposite direction, in the common usage) is 0.4. The clearance in series [3] was 4.15 L/h/kg; in [10], 5.02 L/h/kg; in series [16] it was 10.2 L/h/kg; in series [18], 39.1 L/h/kg; in series [21], 6.25 L/h/kg. The half-life (in general, how long it takes for the measured level to halve) is 131 min in series [4]; 16.9 min in [7]; 39.1 min in series [8]; 4.97 min in series [12]; 48 min in series [15]; 57 min in series [17]. The compound also showed a half-life in series [22] of 104 min. The bioavailability (commonly the share of a dose that reaches the circulation, judged against a reference dose that is usually intravenous) in series [5] turned out to be 12.4%. Also, the fu in series [6] is 0.4%; in [20], 0.5%; in series [24], 0.7%; in series [25], 0.6%. Also, in series [9], the “fu,brain” value stood at 0.3%. The compound also showed a CL in [11] of 6.17 L/h/kg. The Cmax (as a rule, the maximum level reached in the sampled fluid or tissue) in [13] was 0.0362 µg/mL. Further, in [14], the Vdss stood at 9.01 L/kg. In [1], the half-maximal effective concentration (EC50) was > 48.8 µM. Also, the Papp A→B (as a rule, how fast a substance crosses the layer from the apical side) in series [19] was 99 nm/s. In addition, the Kp uu at 8 h in series [23] was 0.77.

On to `CC(C)n1nnnc1[C@H](c1ccccc1F)N1CCN(c2cccc(Cl)c2)CC1`, for which the efflux ratio in series [2] turned out to be 0.6. Moreover, the clearance was 11.4 L/h/kg in series [3]; 6.18 L/h/kg in series [10]; 12.6 L/h/kg in series [16]; 19.9 L/h/kg in series [18]; 2.86 L/h/kg in series [21]. The half-life was 115 min in [4]; 37 min in series [7]; 14.2 min in series [8]; 9.78 min in series [12]; 39.1 min in series [15]; 46.3 min in series [17]. Further, the bioavailability in [5] was 3.45%. Further, the fu in [6] was found to be 0.8%; in [20], 1%; in series [24], 1%; in series [25], 0.4%. Also, the “fu,brain” value in [9] is recorded as 0.3%. Moreover, in series [11], the CL was 6.53 L/h/kg. The highest level in [13] (Cmax) was 0.00896 µg/mL. This compound also displayed a Vdss in series [14] of 9.27 L/kg. The EC50 in series [1] was > 48.8 µM. Moreover, the Papp A→B in series [19] turned out to be 107 nm/s. Besides, the Kp uu at 8 h in [23] worked out at 0.55.
